Laboratory results from US8093220B2, “Combination of an HDAC inhibitor and an antimetabolite” (Novartis AG, priority 2006, dated 2012).
Where “and” joins values, the source holds several entries; their conditions need not be identical. Equal entries are not always repeated.

Columns and labels:
[1] = tested on: primary human AML blast cells; assay: Loss of viability of primary patient AML cells, trypan-blue exclusion; format: cell-based; settings: one table row per patient (1-6)
Procedure: To further test the combination of LBH589+5-aza to induce cell death in AML, the U937 AML cell lines and fresh leukemia blast cells from AML patients are incubated with the compounds either as a combination or as single agents. Cell death is either monitored by cells staining for Annexin V (signifying apoptosis) or by counting live cells by trypan-blue exclusion. […] Importantly, no antagonism is observed when the two compounds are combined. […] Trypan-blue exclusion is used to count number of viable cells and percentage of dead cells for each treatment calculated and tabulated.

[2] = tested on: AML cell line U937; assay: Western immunoblotting of U937 cells for acetylated tubulin, p21 and PARP; format: cell-based; settings: 2 μM 5-aza, 10 nM LBH589 or combination, 24 hours, western blot (FIG. 1)
Procedure: The AML cell line U937 is incubated with LBH589 or 5-aza as single agents or in combination.
U937 cells are treated with 2 μM 5-aza, 10 nM LBH589 or with a combination of 5-aza+LBH589 for 24 hours. Cells are lysed, proteins separated by SDS-PAGE and western immunoblotting analysis done with antibodies against acetylated tubulin, p21, PARP and β-actin (control for loading).

Compound	% Cell Death ([1]; Aza 1 μM, listed as Aza)	% Cell Death ([1]; Aza 2 μM, listed as Aza)	PARP cleavage as a measure of apoptotic cell death [2]	acetylation of alpha-tubulin [2]	expression of the cell growth inhibitor p21 [2]	% Cell Death ([1]; LBH-589 10 nM)	% Cell Death ([1]; LBH-589 50 nM)
Nc1ncn([C@@H]2O[C@H](CO)[C@@H](O)[C@H]2O)c(=O)n1 [5-aza, 5-azacytidine]	8.6% and 16.5% and 25.9% and 13.1% and 15% and 19.3%	10.1% and 19.3% and 28.5% and 15.9% and 22.6% and 40.4%	only a slight PARP cleavage	not	induces the expression		
Cc1[nH]c2ccccc2c1CCNCc1ccc(/C=C/C(=O)NO)cc1 [LBH589, N-hydroxy-3-[4-[[[2-(2-methyl-1H-indol-3-yl)-ethyl]-amino]methyl]phenyl]-2E-2-propenamide]			only a slight PARP cleavage	induces increased acetylation	induces the expression	15.4% and 22.3% and 41.9% and 19.5% and 73.7% and 35.9%	45.1% and 34.2% and 62.6% and 41.6% and 85.6% and 48.9%
